# Results published in patent US20140024596A1, “DISEASE INHIBITING AGENT” (NITTA GELATIN INC., priority 2010, published 2014).
# Non-standard residues stand in square brackets, D forms with d. Residues, ends and D or L forms follow the SMILES beside them. Hyp = O=C(O)[C@@H]1C[C@@H](O)CN1
# What was measured:
# [1] = in vivo; settings: male, Wistar, rat, po, 215 nmol/10 mL
# Experimental: Male Wistar rats (170 g) were fasted overnight before subjected to the experiment.
# As a test method, heart and portal vein of each rat were attached with a cannula to make one-directional perfusion.
# To a perfusion sample solution (5.0 mL) collected from the portal vein was added 0.5 mL of 30% sulfosalicylic acid and stirred vigorously, and left overnight in a refrigerator. This sample was centrifuged at 3000 rpm for 10 minutes, to remove protein. For the supernatant of centrifugation, an amount of hydroxyproline in 0.5 mL was colorimetrically quantified, and an amount of free-type Hyp was obtained.
# Further, 3.0 mL of the supernatant of centrifugation was weighed into a screw-top test tube, and thereto an equivalent amount of concentrated hydrochloric acid was added, and hydrolyzed at 110° C. for 24 hours. After concentrating and drying the resultant in an evaporator, and removing the hydrochloric acid, the solid was dissolved in 5 mL of distilled water, and several drops of a saturated lithium hydroxide solution was added thereto to adjust pH at 5 to 7, and the volume was fixed at 10 mL. For 2 mL of this solution, an amount of hydroxyproline was colorimetrically quantified to obtain a total Hyp amount. The value obtained by subtracting the amount of free-type Hyp before hydrolysis from the total Hyp amount after hydrolysis is an amount of peptide-form Hyp. From this amount of peptide-form Hyp, a quantitative value of absorption of each peptide molecule into rat portal vein perfusate in the test sample was first determined.
# In the above description, the colorimetric quantification of the amount of hydroxyproline was conducted by the Firschein and Shill method described concretely in Evaluation test 4.
# Also, identification and quantification of OG, PO, Ala-Hyp, and Ser-Hyp were conducted by HPLC analysis and mass spectrometry (LC/MS/MS) as will be described later.
# Analysis of the peptide molecules in the perfusate was conducted by reverse-phase HPLC analysis. As a HPLC device, an LCSS-905 system manufactured by JASCO Corporation, consisting of a liquid feeding pump, a degasser, an automatic sampler, a column open, a UV spectrophotometer, a printer, and a system controller was used. As a reverse-phase column, Nova Pak C18 (3.9×150 mm) was used.
# A linear gradient mobile phase of a 0.1% TFA-containing acetonitrile-water system was used, and the injection amount of the sample was 70 μL and the flow rate was 1 mL/min.
# As a HPLC device, U980HPLC (manufactured by JASCO Corporation) attached with an ODS(C18) column (Mightysil RP-18, 2×250 mm, manufactured by Kanto Chemical Co Ltd) was used. As a mobile phase solvent, a 0.2% formic acid-containing acetonitrile-water system was used, and the concentration of acetonitrile was increased from 0% to 40% over 40 minutes by a linear gradient, and washed with 100% acetonitrile for 10 minutes. The sample injection amount was 10 μL, and the column temperature was 40° C.
# MS analysis was conducted by a MS/MS system using a Quattro LC mass spectrophotometer (Micromass, Manchester, UK) according to a four-channel Multiple Reaction Monitoring method. To be more specific, the elute from HPLC was monitored by m/z being [M+H]^+ and by m/s of its fragment ion species. The monitoring was conducted by using [M+H]^+ m/z: 229.1>132.1 for PO, [M+H]^+ m/z: 219.1>132.1 for Ser-Hyp, [M+H]^+ m/z: 203.1>132.1 for Ala-Hyp, and [M+H]^+ m/z: 189.1>86.1 for OG.
# The perfusate was treated with sulfosalicylic acid in a final concentration of 3%, to remove protein. The supernatant liquid was lyophilized and 10 mg of a dry powder was dissolved in distilled water, and subjected to a positive ion exchange resin column to obtain an ammonia elution fraction. After removing the solvent, the fraction was dissolved in distilled water and subjected to LC/MS/MS analysis.
# [2] = test system: osteoclast (precursor cells of osteoclasts and bone marrow stromal cells on ivory piece); assay: Evaluation Test 1: Pit assay, osteoclast cultured on ivory piece; type: cell-based, mouse; settings: control (blank) = 100, n = 6; for Relative number of TRAP-positive multinucleated giant cells (osteoclasts) by cultivation on ivory piece (%): cultured about 1 week on ivory piece; for Relative number of Pit (%): resorption cavities on ivory piece, about 1 week
# Experimental: Further, the inhibition degree of differentiation and activation of osteoclast by each of the peptide molecules, and amino acids was evaluated by the following Pit assay. In brief, the Pi assay in which osteoclast is cultured on an ivory piece was conducted in conformance with Kakudo S, et al J. Bone Miner. Metab. (1996) 14: 129-136. The concrete procedure is as follows. […] Then, after removing the cells from the ivory piece with a silicone rubber policeman, the ivory piece was stained with an acid hematoxylin solution for several minutes. At this time, the number of TRAP staining positive multinucleated giant cells (osteoclast) was counted by TRAP staining, and a relative number with respect to the number of cells in control (blank) was calculated. Then, the Pit number (number of resorption cavity) by osteoclast was counted under a microscope, and the degree of inhibiting osteoclast by each peptide to be tested was indicated by a relative ratio to blank (control).
# [3] = test system: osteoclast (mouse primary bone marrow cell culture); assay: Evaluation Test 1: osteoclast differentiation culture on plastic dish (TRAP-positive multinucleated giant cells); type: cell-based; settings: final concentration 625 μM, 6 days culture, control (blank) = 100, n = 6
# Experimental: Evaluation was made in conformance with an osteoclast differentiation culture method by Kobayashi Y. et al. [J. Bone Miner. Metab. (2004) 22: p. 318-328]. […] As a control, TRAP inhibiting activity when no peptide was added (blank) was also examined.
SMILES,level at time molar [1],other results
"O=C(O)CNC(=O)[C@@H]1C[C@@H](O)CN1C(=O)[C@@H]1CCCN1C(=O)CNC(=O)[C@@H]1C[C@@H](O)CN1C(=O)[C@@H]1CCCN1 [(POG)2, (Pro-Hyp-Gly)2] (H-P[Hyp]GP[Hyp]G-OH; N-terminus and C-terminus assumed)",1100 nM,–
"O=C(O)CNC(=O)[C@@H]1C[C@@H](O)CN1C(=O)[C@@H]1CCCN1C(=O)CNC(=O)[C@@H]1C[C@@H](O)CN1C(=O)[C@@H]1CCCN1C(=O)CNC(=O)[C@@H]1C[C@@H](O)CN1C(=O)[C@@H]1CCCN1 [(POG)3, (Pro-Hyp-Gly)3] (H-P[Hyp]GP[Hyp]GP[Hyp]G-OH)",900 nM,–
"O=C(O)CNC(=O)[C@@H]1C[C@@H](O)CN1C(=O)[C@@H]1CCCN1C(=O)CNC(=O)[C@@H]1C[C@@H](O)CN1C(=O)[C@@H]1CCCN1C(=O)CNC(=O)[C@@H]1C[C@@H](O)CN1C(=O)[C@@H]1CCCN1C(=O)CNC(=O)[C@@H]1C[C@@H](O)CN1C(=O)[C@@H]1CCCN1 [(POG)4, (Pro-Hyp-Gly)4] (H-P[Hyp]GP[Hyp]GP[Hyp]GP[Hyp]G-OH)",800 nM,–
C[C@H](N)C(=O)N1C[C@H](O)C[C@H]1C(=O)O [Ala-Hyp] (H-Ala-[Hyp]-OH),1200 nM,–
CC(C)C[C@H](NC(=O)[C@H](Cc1c[nH]cn1)NC(=O)CNC(=O)[C@H](CC(=O)O)NC(=O)CNC(=O)[C@@H](N)CCC(=O)O)C(=O)NCC(=O)N[C@@H](CCCCN)C(=O)N1CCC[C@H]1C(=O)NCC(=O)N[C@@H](CCCNC(=N)N)C(=O)N1C[C@H](O)C[C@H]1C(=O)NCC(=O)N[C@@H](CCC(=O)O)C(=O)O [EGDGHLGKPGROGE] (H-EGDGHLGKPGR[Hyp]GE-OH),100 nM,–
N=C(N)NCCC[C@H](NC(=O)CNC(=O)[C@@H]1CCCN1C(=O)[C@H](CCCCN)NC(=O)CNC(=O)[C@@H]1CCCN1C(=O)[C@H](Cc1c[nH]cn1)NC(=O)CNC(=O)[C@H](CC(=O)O)NC(=O)[C@H](CCCCN)NC(=O)[C@@H](N)CCC(=O)O)C(=O)N1C[C@H](O)C[C@H]1C(=O)NCC(=O)N[C@@H](CCC(=O)O)C(=O)O [EKDGHPGKPGROGE] (H-EKDGHPGKPGR[Hyp]GE-OH),100 nM,–
"NCC(=O)N1CCC[C@H]1C(=O)N1C[C@H](O)C[C@H]1C(=O)NCC(=O)N1CCC[C@H]1C(=O)N1C[C@H](O)C[C@H]1C(=O)NCC(=O)O [G(POG)2, Gly-(Pro-Hyp-Gly)2] (H-GP[Hyp]GP[Hyp]G-OH; N-terminus and C-terminus assumed)",100 nM,–
"NCC(=O)N1CCC[C@H]1C(=O)N1C[C@H](O)C[C@H]1C(=O)NCC(=O)N1CCC[C@H]1C(=O)N1C[C@H](O)C[C@H]1C(=O)NCC(=O)N1CCC[C@H]1C(=O)N1C[C@H](O)C[C@H]1C(=O)NCC(=O)O [G(POG)3, Gly-(Pro-Hyp-Gly)3] (H-GP[Hyp]GP[Hyp]GP[Hyp]G-OH)",80 nM,–
"O=C(O)[C@@H]1C[C@@H](O)CN1 [Hyp, hydroxyproline]",–,Relative number of TRAP-positive multinucleated giant cells (osteoclasts) by cultivation on ivory piece (%) [2]: 141 ± 9 %; Relative number of Pit (%) [2]: 131 ± 11 %; Relative area of TRAP-positive multinucleated giant cells (osteoclasts) by cultivation on plastic dish (%) [3]: 117 ± 13 %; Relative number of TRAP-positive multinucleated giant cells (osteoclasts) by cultivation on plastic dish (%) [3]: 126 ± 4 %
"O=C(O)CNC(=O)[C@@H]1C[C@@H](O)CN1 [OG, Hyp-Gly] (H-[Hyp]-Gly-OH)",9800 nM,–
"O=C(O)[C@@H]1C[C@@H](O)CN1C(=O)[C@@H]1CCCN1 [PO, Pro-Hyp] (H-Pro-[Hyp]-OH)",21300 nM,–
"O=C(O)[C@@H]1CCCN1 [Pro, proline]",–,Relative number of TRAP-positive multinucleated giant cells (osteoclasts) by cultivation on ivory piece (%) [2]: 119 ± 20%; Relative number of Pit (%) [2]: 121 ± 23%; Relative area of TRAP-positive multinucleated giant cells (osteoclasts) by cultivation on plastic dish (%) [3]: 125 ± 69%; Relative number of TRAP-positive multinucleated giant cells (osteoclasts) by cultivation on plastic dish (%) [3]: 119 ± 44%
N[C@@H](CO)C(=O)N1C[C@H](O)C[C@H]1C(=O)O [Ser-Hyp] (H-Ser-[Hyp]-OH),700 nM,–
